Experiment [1] concerns human umbilical vein endothelial cells (HUVEC). As to the kind of experiment: HUVEC Proliferation Assay (VEGF-stimulated). Format: cell-based. In a few lines:
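Serum-starved HUVEC (passage 3–4, F12K + 1% FBS, 24 h) pretreated 1 h with compound (final DMSO 0.1%), then stimulated with 6 ng/mL VEGF for 72 h. Proliferation read by 4 h MTT reduction, absorbance 595. IC50 from seven-point 0.5-log curves in triplicate; screening % inhibition normalised to VEGF-only and starvation controls.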

Experiment [2] relates to HUVEC. The experiment can be described thus: bFGF Huvec. Format: cell-based. The following applies: Homo sapiens.
For experiment [3], the target named is T1, LCK (Homo sapiens, UniProt P06239, C224D/P223M).
T1 construct: starting from amino acid residue 223 to the end of the protein at residue 509; made in house; host or cells: insect cells
T1 sequence (P06239 223-509 P223M/C224D): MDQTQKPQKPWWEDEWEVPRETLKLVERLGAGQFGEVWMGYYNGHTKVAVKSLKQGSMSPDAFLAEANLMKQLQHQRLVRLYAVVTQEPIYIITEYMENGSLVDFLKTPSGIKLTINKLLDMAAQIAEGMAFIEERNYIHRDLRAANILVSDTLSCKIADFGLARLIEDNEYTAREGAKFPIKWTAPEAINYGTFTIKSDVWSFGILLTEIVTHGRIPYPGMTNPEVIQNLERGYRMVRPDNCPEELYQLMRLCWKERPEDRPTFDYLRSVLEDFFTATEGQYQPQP
As to the kind of experiment: Lymphocyte-Specific Protein-Tyrosine Kinase (LCK) spectrophotometric assay. It is filed as biochemical. The following applies: 1 μM compound; read-out: LckP* % inhibit @1 μM.

For experiment [4], the target named is T2, phosphorylated VEGF-R2Δ50 (Homo sapiens, UniProt P35968, DEL940-989/E990V).
T2 construct: VEGF-R2Δ50 contains residues 806–939 and 990–1171; made in house; host or cells: baculovirus/insect cell system
T2 sequence (P35968 with tags, fused parts or gaps DEL940-989/E990V limits assumed): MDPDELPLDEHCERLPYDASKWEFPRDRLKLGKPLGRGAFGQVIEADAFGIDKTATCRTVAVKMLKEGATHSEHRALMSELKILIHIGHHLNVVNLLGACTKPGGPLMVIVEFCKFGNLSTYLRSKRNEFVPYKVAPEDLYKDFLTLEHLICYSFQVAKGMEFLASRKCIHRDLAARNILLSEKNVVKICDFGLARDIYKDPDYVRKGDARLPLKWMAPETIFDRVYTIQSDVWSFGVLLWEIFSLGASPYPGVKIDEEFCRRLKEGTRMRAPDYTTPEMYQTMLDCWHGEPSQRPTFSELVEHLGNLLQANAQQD
The experiment can be described thus: VEGF-R2 coupled spectrophotometric (FLVK-P) assay, phosphorylated construct. The note with it: Ki (nM). It is filed as biochemical. An excerpt:
This construct determines the ability of a test compound to inhibit tyrosine kinase activity. A construct (VEGF-R2Δ50) of the cytosolic domain of human vascular endothelial growth factor receptor 2 (VEGF-R2) lacking the 50 central residues of the 68 residues of the kinase insert domain was expressed in a baculovirus/insect cell system. Of the 1356 residues of full-length VEGF-R2, VEGF-R2Δ50 contains residues 806–939 and 990–1171, and also one point mutation (E99OV) within the kinase insert domain relative to wild-type VEGF-R2. Autophosphorylation of the purified construct was performed by incubation of the enzyme at a concentration of 4 μM in the presence of 3 mM ATP and 40 mM MgCl2 in 100 mM HEPES, pH 7.5, containing 5% glycerol and 5 mM DTT, at 4° C. for 2 h. […] See Parast et al., Biochemistry, 37,16788–16801 (1998).
The production of ADP from ATP that accompanies phosphoryl transfer was coupled to oxidation of NADH using phosphoenolpyruvate (PEP) and a system having pyruvate kinase (PK) and lactic dehydrogenase (LDH). The oxidation of NADH was monitored by following the decrease of absorbance at 340 nm (e340=6.22 cm^−1 mM^−1) using a Beckman DU 650 spectrophotometer. […] Ki values were determined by measuring enzyme activity in the presence of varying concentrations of test compounds. The data were analyzed using Enzyme Kinetic and Kaleidagraph software.

For experiment [5], the system named is HUVEC. As to the kind of experiment: HUVEC + albumin proliferation. The following applies: Homo sapiens, 72 h, with albumin. Format: cell-based. How it is done: This assay determines the ability of a test compound to inhibit the growth factor-stimulated proliferation of human umbilical vein endothelial cells (“HUVEC”). HUVEC cells (passage 3–4, Clonetics, Corp.) were thawed into EGM2 culture medium (Clonetics Corp) in T75 flasks. Fresh EGM2 medium was added to the flasks 24 hours later. Four or five days later, cells were exposed to another culture medium (F12K medium supplemented with 10% fetal bovine serum (FBS), 60 μg/mL endothelial cell growth supplement (ECGS), and 0.1 mg/mL heparin). Exponentially-growing HUVEC cells were used in experiments thereafter. Ten to twelve thousand HUVEC cells were plated in 96-well dishes in 100 μl of rich, culture medium (described above). The cells were allowed to attach for 24 hours in this medium. The medium was then removed by aspiration and 105 μl of starvation media (F12K+1% FBS) was added to each well. After 24 hours, 15 μl of test agent dissolved in 1% DMSO in starvation medium or this vehicle alone was added into each treatment well; the final DMSO concentration was 0.1%. One hour later, 30 μl of VEGF (30 ng/mL) in starvation media was added to all wells except those containing untreated controls; the final VEGF concentration was 6 ng/mL. Cellular proliferation was quantified 72 hours later by MTT dye reduction, at which time cells were exposed for 4 hours MTT (Promega Corp.). Dye reduction was stopped by addition of a stop solution (Promega Corp.) and absorbance at 595λ was determined on a 96-well spectrophotometer plate reader.
IC50 values were calculated by curve-fitting the response of A^595 to various concentrations of the test agent; typically, seven concentrations separated by 0.5 log were employed, with triplicate wells at each concentration. For screening compound library plates, one or two concentrations (one well per concentration) were employed, and the % inhibition was calculated by the following formula: % inhibition=(control−test)[…](control−starvation) where

Each structure is given as a SMILES string.

Consider `Cc1ccnc(/C=C/c2n[nH]c3cc(Nc4ccccc4C(=O)NC4CC4)ccc23)c1` [Example 2(h), N-Cyclopropyl-2-{3-[(E)-2-(4-methyl-pyridin-2-yl)-vinyl]-1H-indazol-6-ylamino}-benzamide], for which the IC50 in experiment [1] stood at 1.6 nM; in experiment [2] it was 70 nM.

As for `COc1ccccc1CNC(=O)c1ccccc1Nc1ccc2c(/C=C/c3ccccn3)n[nH]c2c1` [Example 3(h), N-(2-Methoxy-benzyl)-2-[3-((E)-2-pyridin-2-yl-vinyl)-1H-indazol-6-ylamino]-benzamide], the inhibition at 1 µM in experiment [3] came out at 37%. The molecule further registered an IC50 in experiment [1] of 1.6 nM.

With `Cc1cc(C)nc(/C=C/c2n[nH]c3cc(Nc4ccccc4C(=O)NCC#CCO)ccc23)c1` [Example 10, 2-{3-[(E)-2-(4,6-Dimethyl-pyridin-2-yl)-vinyl]-1H-indazol-6-ylamino}-N-(4-hydroxy-but-2-ynyl)-benzamide], the affinity in experiment [4], expressed as Ki, was 6.07 nM. Moreover, the midpoint of inhibition in experiment [1], the IC50, lay at 0.67 nM.

With `C=C(C)CNC(=O)c1ccccc1Nc1ccc2c(/C=C/c3ccccn3)n[nH]c2c1` [Example 3(k), N-(2-Methyl-allyl)-2-[3-((E)-2-pyridin-2-yl-vinyl)-1H-indazol-6-ylamino]-benzamide], the inhibition at 1 µM in experiment [3] came out at 19%. The IC50 in experiment [1] was 0.8 nM; in experiment [2] it was 1000 nM.

With `O=C(NC1CCC1)c1ccccc1Nc1ccc2c(/C=C/c3ccccn3)n[nH]c2c1` [Example 3(j), N-Cyclobutyl-2-[3-((E)-2-pyridin-2-yl-vinyl)-1H-indazol-6-ylamino]-benzamide], the inhibition at 1 µM in experiment [3] is 17%. The IC50 in experiment [1] turned out to be 1.7 nM.

On to `O=C(NCC#CCO)c1ccccc1Nc1ccc2c(/C=C/c3ccccn3)n[nH]c2c1` [Example 64, N-(4-Hydroxy-but-2-ynyl)-2-[3-(2-pyridin-2-yl-vinyl)-1H-indazol-6-ylamino]-benzamide], for which the results for the IC50 in experiment [1] and in experiment [2] were 0.15 nM and 1250 nM, respectively.

In the case of `O=C(NC1CC1)c1ccccc1Nc1ccc2c(/C=C/c3ccccn3)n[nH]c2c1` [Example 3(d), N-Cyclopropyl-2-[3-((E)-2-pyridin-2-yl-vinyl)-1H-indazol-6-ylamino]-benzamide], the IC50 stood at 7.5 nM in experiment [5], 0.4 nM in experiment [1] and 147 nM in experiment [2]. The inhibition at 1 µM in experiment [3] is 11%.

In experiment [1], `C#CCNC(=O)c1ccccc1Nc1ccc2c(/C=C/c3cc(C)ccn3)n[nH]c2c1` [Example 32, 2-{3-[(E)-2-(4-Methyl-pyridin-2-yl)-vinyl]-1H-indazol-6-ylamino}-N-prop-2-ynyl-benzamide] returned an IC50 of 0.61 nM.

One may read the IC50 as the concentration needed to halve the response being measured. Usually Ki stands for a measure of affinity in units of concentration, obtained from inhibition or displacement. A lower Ki goes with a stronger hold on the target.

(Values after US7053107B2, “Indazole compounds and pharmaceutical compositions for inhibiting protein kinases, and methods for their use” (Agouron Pharmaceuticals, Inc., priority 2002, dated 2006).)
